Reference: patent US5519116A, “Peptides representing permutations of the mastoparan sequence” (Enichem S.p.A., priority 1991, dated 1996)
pEC50, pIC50, pKd: −log10 of the molar value. Peptide text beside a SMILES is read from it.

How the values were obtained:
[1] = target: rGOα; experiment: GTPγS binding to rGOα to saturation; design: species or system rat; conditions: at 20°
[2] = target: T1, rGOα (recombined Goα protein) (Rattus norvegicus, UniProt P59215); experiment: GTPase activity assay: GTP hydrolyzed by rGOα reconstituted into phospholipid blisters; assay type: biochemical; conditions: for inhibition at 1000 µM: 1 mM concentration of peptide, read-out: inhibition of hydrolysis of GTP by rGOα; for pIC50: inhibition of basal GTPase activity of rGOα, read-out: IC 50 (concentration necessary to achieve 50% inhibition); for pEC50: stimulation of rGOα GTPase activity, read-out: concentration giving 50 % of maximum stimulation
T1 construct: made in house; host or cells: E. coli (plasmid pT7-7)
T1 sequence (P59215 13-354): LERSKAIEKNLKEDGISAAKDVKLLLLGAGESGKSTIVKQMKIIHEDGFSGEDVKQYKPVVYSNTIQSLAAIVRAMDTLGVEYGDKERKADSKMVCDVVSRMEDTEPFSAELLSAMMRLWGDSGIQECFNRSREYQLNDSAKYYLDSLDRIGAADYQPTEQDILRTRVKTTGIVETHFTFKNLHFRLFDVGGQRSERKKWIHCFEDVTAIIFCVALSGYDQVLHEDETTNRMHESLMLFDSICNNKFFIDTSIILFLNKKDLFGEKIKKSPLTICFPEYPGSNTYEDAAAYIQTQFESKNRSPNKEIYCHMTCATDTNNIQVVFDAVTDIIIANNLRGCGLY
Procedure: The activity of the peptides was determined by evaluating the quantity of GTP hydrolyzed in the presence of a recombined Goα protein, using the procedures published by Brandt et al., (1983), Biochemistry, 22, 4357-4362 and by Higashijima et al., (1987), J. Biol. Chem., 262, 757-761.
The rGOα was produced by the authors of the present invention by expression in E.coli of the cDNA of the α subunit of the Go protein present in the rat's brain, inserted in register in the bacterial plasmid pt7-7 (Tabor et al., 1985, Proc. Natl. Acad. Sci. USA, 82, 1074-1078).
Compared with natural GOα, rGOα has an N-terminal deletion of 11 amino acids, replaced by another 5 different amino acids because of the cloning strategy adopted. The molecular weight of rGOα is 38.6 Kd.
When the rGOα is reconstituted into phospholipid blisters (by incubation with a phospholipid mixture at 4° C. for 16 hours), its basal GTPase activity reduces to 0.02 min^-1, This experimental condition which approaches that of the natural protein, in the inactivity state, inserted into the cell membrane was chosen to evaluate the effect of the peptides on the hydrolysis of GTP by rGOα.
5 volumes of a solution of rGOα in 50 mM Hepes, pH 8, 1 mM EDTA, 1 mM DTT and 0.02% of Lubrol (HEDL) were mixed with 1 volume of the same buffer containing 0.84% of sodium cholate, 0.05% of dimyristoyl-L-α-phosphatidylcholine, 0.05% of phosphatidylethanolamine from bovine brain and 0.067% of phosphatidyl-serine from bovine brain (as described by Mousli et al., 1990, Immunol. Lett., 25, 355-358) and preincubated at 4° C. overnight.
An aliquot of 32 μl of this solution was incubated at 20° C. for 5 min in a final volume of 50 μl of HEDL containing 1.1 mM MgCl2 and 0.4 μM (γ^-32 p) GTP (10000-30000 cpm/pmol) and the respective peptide at the final concentrations indicated.
The reactions were terminated by adding 750 μl of a 5% suspension of vegetable charcoal in 20 mM phosphoric acid. After agitation and centrifuging, 400 μl of supernatant containing the radioactive phosphate were counted by liquid scintillation.

SMILES | inhibition at 1000 µM [2] | pIC50 [2] | further results
Nc1nc2c(ncn2[C@@H]2O[C@H](COP(=O)(O)OP(=O)(O)OP(O)(O)=S)[C@@H](O)[C@H]2O)c(=O)[nH]1 [GTPγ S] | – | – | pKd [1]: 8.54
CC[C@H](C)[C@H](N)C(=O)N[C@@H](CC(N)=O)C(=O)N[C@@H](CC(C)C)C(=O)N[C@@H](CCCCN)C(=O)N[C@@H](C)C(=O)N[C@@H](CC(C)C)C(=O)N[C@@H](C)C(=O)N[C@@H](C)C(=O)N[C@@H](CC(C)C)C(=O)N[C@@H](C)C(=O)N[C@@H](CCCCN)C(=O)N[C@@H](CCCCN)C(=O)N[C@H](C(=O)N[C@@H](CC(C)C)C(N)=O)[C@@H](C)CC [Mastoparan, mastoparan] | – | – | increase of GTP hydrolysis ([2]; 1 mM of peptide (no additional effect beyond this concentration), 20° C., 5 min): 5 times; effect on the GTPase activity of rGOα (capacity to activate the protein rGoα) ([2]; summary in words): stimulate the GTPase activity of rGOα in a manner dependent on the concentration
CC[C@H](C)[C@H](NC(=O)[C@H](CC(C)C)NC(=O)[C@H](C)NC(=O)[C@H](CCCCN)NC(=O)[C@H](CC(C)C)NC(=O)[C@H](CC(N)=O)NC(=O)[C@H](CC(C)C)NC(=O)[C@H](C)NC(=O)[C@@H](NC(=O)[C@H](CCCCN)NC(=O)[C@@H](N)CC(C)C)[C@@H](C)CC)C(=O)N[C@@H](C)C(=O)N[C@@H](C)C(=O)N[C@@H](CCCCN)C(=O)O [compound 2] (H-LKIALNLKALIAAK-OH) | > 90% | 3.89 | –
CC[C@H](C)[C@H](NC(=O)[C@H](C)NC(=O)[C@H](CC(C)C)NC(=O)[C@H](C)N)C(=O)N[C@@H](CCCCN)C(=O)N[C@@H](CC(C)C)C(=O)N[C@H](C(=O)N[C@@H](CC(C)C)C(=O)N[C@@H](CC(N)=O)C(=O)N[C@@H](CC(C)C)C(=O)N[C@@H](CCCCN)C(=O)N[C@@H](C)C(=O)N[C@@H](CCCCN)C(=O)N[C@@H](C)C(=O)O)[C@@H](C)CC [peptide 1] (H-ALAIKLILNLKAKA-OH) | 75% | 3.67 | –
CC[C@H](C)[C@H](N)C(=O)N[C@@H](CC(N)=O)C(=O)N[C@@H](CC(C)C)C(=O)N[C@@H](C)C(=O)N[C@@H](C)C(=O)N[C@@H](CC(C)C)C(=O)N[C@@H](CCCCN)C(=O)N[C@@H](CCCCN)C(=O)N[C@@H](CC(C)C)C(=O)N[C@@H](C)C(=O)N[C@@H](C)C(=O)N[C@@H](CCCCN)C(=O)N[C@H](C(=O)N[C@@H](CC(C)C)C(=O)O)[C@@H](C)CC [peptide 4] (H-INLAALKKLAAKIL-OH) | – | – | pEC50 ([2]; 20° C., 5 min): 3.30
CC[C@H](C)[C@H](NC(=O)[C@H](C)NC(=O)[C@H](CCCCN)NC(=O)[C@H](CC(C)C)NC(=O)[C@H](CCCCN)NC(=O)[C@H](C)NC(=O)[C@H](CC(N)=O)NC(=O)[C@@H](N)CC(C)C)C(=O)N[C@@H](C)C(=O)N[C@@H](CC(C)C)C(=O)N[C@@H](C)C(=O)N[C@@H](CC(C)C)C(=O)N[C@H](C(=O)N[C@@H](CCCCN)C(=O)O)[C@@H](C)CC [peptide 7] (H-LNAKLKAIALALIK-OH) | 63% | 3.22 | –
CC[C@H](C)[C@H](NC(=O)[C@H](CC(C)C)NC(=O)[C@H](C)NC(=O)[C@H](CCCCN)NC(=O)[C@H](C)NC(=O)[C@H](CC(C)C)NC(=O)[C@H](C)NC(=O)[C@H](CC(C)C)NC(=O)[C@@H](NC(=O)[C@@H](N)CC(N)=O)[C@@H](C)CC)C(=O)N[C@@H](CCCCN)C(=O)N[C@@H](C)C(=O)N[C@@H](CC(C)C)C(=O)N[C@@H](CCCCN)C(=O)O [peptide 8] (H-NILALAKALIKALK-OH) | – | – | pEC50 ([2]; 20° C., 5 min): 3.60
